Laboratory results: PubChem BioAssay (NCI)
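Values below derive from 48-hour exposures of cells grown in 96-well plates, with endpoints linearly interpolated between the two concentrations bracketing the appropriate inhibition level. Here, GI50 denotes the concentration required for 50% inhibition of growth. TGI is the concentration that stops growth completely.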

What was measured:
Experiment in all cases: NCI-60 cell line screen, 48 h
MDA-MB-435 = tested on: MDA-MB-435
SNB-19 CNS = tested on: SNB-19 CNS
RPMI-8226 leukemia = tested on: RPMI-8226 leukemia
U251 CNS = tested on: U251 CNS
COLO 205 colon = tested on: COLO 205 colon
MDA-MB-231 breast = tested on: MDA-MB-231 breast
UACC-62 melanoma = tested on: UACC-62 melanoma
IGROV1 ovarian = tested on: IGROV1 ovarian
SNB-75 CNS = tested on: SNB-75 CNS
OVCAR-4 ovarian = tested on: OVCAR-4 ovarian
NCI-H226 lung = tested on: NCI-H226 lung
OVCAR-3 ovarian = tested on: OVCAR-3 ovarian
HL-60(TB) leukemia = tested on: HL-60(TB) leukemia
OVCAR-8 ovarian = tested on: OVCAR-8 ovarian
BT-549 breast = tested on: BT-549 breast
SW-620 colon = tested on: SW-620 colon
SF-268 CNS = tested on: SF-268 CNS
HCT-15 colon = tested on: HCT-15 colon
NCI-H23 lung = tested on: NCI-H23 lung
HOP-62 NSCLC = tested on: HOP-62 NSCLC
TK-10 renal = tested on: TK-10 renal
ACHN renal = tested on: ACHN renal
MALME-3M melanoma = tested on: MALME-3M melanoma
SK-MEL-28 melanoma = tested on: SK-MEL-28 melanoma
SK-MEL-2 melanoma = tested on: SK-MEL-2 melanoma
RXF 393 renal = tested on: RXF 393 renal
MOLT-4 leukemia = tested on: MOLT-4 leukemia
UO-31 renal = tested on: UO-31 renal
EKVX NSCLC = tested on: EKVX NSCLC
MCF7 breast = tested on: MCF7 breast
A549 NSCLC = tested on: A549 NSCLC
NCI-H460 lung = tested on: NCI-H460 lung
786-0 renal = tested on: 786-0 renal
MDA-MB-468 breast = tested on: MDA-MB-468 breast
M14 melanoma = tested on: M14 melanoma
KM12 colon = tested on: KM12 colon
CCRF-CEM leukemia = tested on: CCRF-CEM leukemia
K-562 leukemia = tested on: K-562 leukemia
SF-539 CNS = tested on: SF-539 CNS
CAKI-1 renal = tested on: CAKI-1 renal
HT29 colon = tested on: HT29 colon
T-47D breast = tested on: T-47D breast
OVCAR-5 ovarian = tested on: OVCAR-5 ovarian
HOP-92 NSCLC = tested on: HOP-92 NSCLC
PC-3 prostate = tested on: PC-3 prostate
LOX IMVI melanoma = tested on: LOX IMVI melanoma
SF-295 CNS = tested on: SF-295 CNS
SK-MEL-5 melanoma = tested on: SK-MEL-5 melanoma
UACC-257 melanoma = tested on: UACC-257 melanoma
HS 578T breast = tested on: HS 578T breast
HCT-116 colon = tested on: HCT-116 colon
SR leukemia = tested on: SR leukemia
SK-OV-3 ovarian = tested on: SK-OV-3 ovarian
HCC-2998 colon = tested on: HCC-2998 colon
DU-145 prostate = tested on: DU-145 prostate
SN12C renal = tested on: SN12C renal
A498 renal = tested on: A498 renal
NCI-H522 lung = tested on: NCI-H522 lung

For `O=c1[nH]n(C(=S)N/N=C/c2ccccc2Cl)c(=O)c2ccccc12`, the GI50 (MDA-MB-435) was 2.88 µM, the TGI (MDA-MB-435) was 12.8 µM and the GI50 (SNB-19 CNS) was 3.87 µM. For the same molecule, the TGI (SNB-19 CNS) was 14.3 µM, the GI50 (RPMI-8226 leukemia) was 2.44 µM and the TGI (RPMI-8226 leukemia) was 7.83 µM. For the same molecule, the GI50 (U251 CNS) was 2.87 µM, the TGI (U251 CNS) was 10.4 µM and the GI50 (COLO 205 colon) was 2.82 µM. It also gave a TGI (COLO 205 colon) of 7.73 µM, a GI50 (MDA-MB-231 breast) of 2.99 µM and a TGI (MDA-MB-231 breast) of 8.61 µM. It also gave a GI50 (UACC-62 melanoma) of 2.91 µM, a TGI (UACC-62 melanoma) of 12.4 µM and a GI50 (IGROV1 ovarian) of 3.42 µM. It also gave a TGI (IGROV1 ovarian) of 11.5 µM, a GI50 (SNB-75 CNS) of 2.08 µM and a TGI (SNB-75 CNS) of 8.43 µM. For the same molecule, the GI50 (OVCAR-4 ovarian) was 4.46 µM, the TGI (OVCAR-4 ovarian) was 16.6 µM and the GI50 (NCI-H226 lung) was 2.88 µM. The TGI (NCI-H226 lung) was 8.54 µM, the GI50 (OVCAR-3 ovarian) was 3.36 µM and the TGI (OVCAR-3 ovarian) was 12.8 µM. For the same molecule, the GI50 (HL-60(TB) leukemia) was 1.65 µM, the TGI (HL-60(TB) leukemia) was 4.5 µM and the GI50 (OVCAR-8 ovarian) was 2.08 µM. For the same molecule, the TGI (OVCAR-8 ovarian) was 5.48 µM, the GI50 (BT-549 breast) was 3.11 µM and the TGI (BT-549 breast) was 11.9 µM. For the same molecule, the GI50 (SW-620 colon) was 3.01 µM, the TGI (SW-620 colon) was 10.5 µM and the GI50 (SF-268 CNS) was 3.36 µM. For the same molecule, the TGI (SF-268 CNS) was 13.8 µM, the GI50 (HCT-15 colon) was 2.24 µM and the TGI (HCT-15 colon) was 6.36 µM. The GI50 (NCI-H23 lung) was 1.97 µM, the TGI (NCI-H23 lung) was 4.56 µM and the GI50 (HOP-62 NSCLC) was 3.14 µM. For the same molecule, the TGI (HOP-62 NSCLC) was 10.8 µM, the GI50 (TK-10 renal) was 5.05 µM and the TGI (TK-10 renal) was 17.3 µM. The GI50 (ACHN renal) was 3.64 µM, the TGI (ACHN renal) was 12.8 µM and the GI50 (MALME-3M melanoma) was 5.64 µM. It also gave a TGI (MALME-3M melanoma) of 18.5 µM, a GI50 (SK-MEL-28 melanoma) of 4.6 µM and a TGI (SK-MEL-28 melanoma) of 16.1 µM. For the same molecule, the GI50 (SK-MEL-2 melanoma) was 1.85 µM, the TGI (SK-MEL-2 melanoma) was 4.19 µM and the GI50 (RXF 393 renal) was 2.58 µM. The TGI (RXF 393 renal) was 7.71 µM, the GI50 (MOLT-4 leukemia) was 1.82 µM and the TGI (MOLT-4 leukemia) was 5.16 µM. The GI50 (UO-31 renal) was 3.78 µM, the TGI (UO-31 renal) was 15 µM and the GI50 (EKVX NSCLC) was 2.73 µM. The TGI (EKVX NSCLC) was 10.8 µM, the GI50 (MCF7 breast) was 2.4 µM and the TGI (MCF7 breast) was 11.3 µM. The GI50 (A549 NSCLC) was 2.93 µM, the TGI (A549 NSCLC) was 10.7 µM and the GI50 (NCI-H460 lung) was 2.11 µM. For the same molecule, the TGI (NCI-H460 lung) was 5.85 µM, the GI50 (786-0 renal) was 4.43 µM and the TGI (786-0 renal) was 16 µM. It also gave a GI50 (MDA-MB-468 breast) of 1.83 µM, a TGI (MDA-MB-468 breast) of 4.46 µM and a GI50 (M14 melanoma) of 2.96 µM. The TGI (M14 melanoma) was 11.4 µM, the GI50 (KM12 colon) was 3.34 µM and the TGI (KM12 colon) was 12.5 µM. The GI50 (CCRF-CEM leukemia) was 2.29 µM, the TGI (CCRF-CEM leukemia) was 7.56 µM and the GI50 (K-562 leukemia) was 2.62 µM. The TGI (K-562 leukemia) was 10.6 µM, the GI50 (SF-539 CNS) was 2.56 µM and the TGI (SF-539 CNS) was 6.26 µM. It also gave a GI50 (CAKI-1 renal) of 3.7 µM, a TGI (CAKI-1 renal) of 15.5 µM and a GI50 (HT29 colon) of 3.96 µM. For the same molecule, the TGI (HT29 colon) was 13.2 µM, the GI50 (T-47D breast) was 2.55 µM and the TGI (T-47D breast) was 8.92 µM. For the same molecule, the GI50 (OVCAR-5 ovarian) was 3.56 µM, the TGI (OVCAR-5 ovarian) was 10.6 µM and the GI50 (HOP-92 NSCLC) was 2.41 µM. For the same molecule, the TGI (HOP-92 NSCLC) was 7.29 µM, the GI50 (PC-3 prostate) was 4.89 µM and the TGI (PC-3 prostate) was 17.9 µM. For the same molecule, the GI50 (LOX IMVI melanoma) was 2.87 µM, the TGI (LOX IMVI melanoma) was 10.4 µM and the GI50 (SF-295 CNS) was 2.48 µM. It also gave a TGI (SF-295 CNS) of 6.79 µM, a GI50 (SK-MEL-5 melanoma) of 3.03 µM and a TGI (SK-MEL-5 melanoma) of 11.9 µM. The GI50 (UACC-257 melanoma) was 4.1 µM, the TGI (UACC-257 melanoma) was 16.8 µM and the GI50 (HS 578T breast) was 2.65 µM. For the same molecule, the TGI (HS 578T breast) was 9.55 µM, the GI50 (HCT-116 colon) was 3.44 µM and the TGI (HCT-116 colon) was 14.1 µM. It also gave a GI50 (SR leukemia) of 1.86 µM, a TGI (SR leukemia) of 5.08 µM and a GI50 (SK-OV-3 ovarian) of 4.82 µM. The TGI (SK-OV-3 ovarian) was 16.1 µM, the GI50 (HCC-2998 colon) was 2.27 µM and the TGI (HCC-2998 colon) was 4.79 µM. The GI50 (DU-145 prostate) was 3.84 µM, the TGI (DU-145 prostate) was 14.5 µM and the GI50 (SN12C renal) was 3.01 µM. The TGI (SN12C renal) was 10.1 µM, the GI50 (A498 renal) was 3.66 µM and the TGI (A498 renal) was 12.1 µM. For the same molecule, the GI50 (NCI-H522 lung) was 2.06 µM and the TGI (NCI-H522 lung) was 5.4 µM.
